Experimental findings from patent publication US9815852B2, “Macrocyclic compounds and methods of treatment” (University of Florida Research Foundation, Inc., priority 2014, dated 2017) are described below.

The structures appear in SMILES notation. Where two headings read alike, the source gives them in different places.

Common to all, as to type: biochemical
One assay addresses HDAC1 (Homo sapiens, UniProt Q13547). The experiment in a line: HDAC enzyme inhibitory assay (fluorescence), HDAC1. As for the experimental part: (§1) Enzyme inhibitory assays were carried out essentially as follows. In brief, compounds were incubated with the appropriate HDAC enzyme, the appropriate HDAC substrate, bovine serum albumin, and HDAC buffer. Duplicate reactions were carried out at 37° C. for 30 min. The reactions were quenched at the end of the incubation period with the addition of HDAC developer. Reactions were further incubated for 15 min at room temperature prior to fluorescence measurement (ex 360 nm/em 460 nm). The % inhibitory activity was calculated according to the equation (F−Fb)/(Ft−Fb), where F—fluorescent intensity of compound treated wells, Fb—fluorescent intensity of blank wells, Ft—fluorescent intensity of solvent control wells. IC50 values were calculated using GraphPad Prism.

The next assay addresses T1, HDAC8 (Homo sapiens, UniProt Q9BY41).
T1 sequence (Q9BY41 1-377): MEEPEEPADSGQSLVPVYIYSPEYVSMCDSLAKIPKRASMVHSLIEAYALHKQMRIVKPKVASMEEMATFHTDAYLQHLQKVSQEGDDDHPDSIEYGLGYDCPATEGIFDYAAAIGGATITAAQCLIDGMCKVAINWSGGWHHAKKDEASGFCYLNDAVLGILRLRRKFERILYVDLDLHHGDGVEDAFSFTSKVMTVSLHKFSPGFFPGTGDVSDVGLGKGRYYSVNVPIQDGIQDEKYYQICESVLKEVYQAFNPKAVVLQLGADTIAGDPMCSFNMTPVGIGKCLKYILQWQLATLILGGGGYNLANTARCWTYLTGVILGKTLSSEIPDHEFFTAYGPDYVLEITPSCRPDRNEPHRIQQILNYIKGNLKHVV
The experiment in a line: HDAC enzyme inhibitory assay (fluorescence), HDAC8. The procedure:
as §1

In the next assay the target is HDAC3 (Homo sapiens, UniProt O15379). The experiment in a line: HDAC enzyme inhibitory assay (fluorescence), HDAC3. The following applies: for IC50 (HDAC3)/IC50 (HDAC1): selectivity ratio, table. As for the experimental part:
as §1

The target of the next assay is HDAC2 (Homo sapiens, UniProt Q92769). The experiment in a line: HDAC enzyme inhibitory assay (fluorescence), HDAC2. The following applies: for IC50 (HDAC2)/IC50 (HDAC1): selectivity ratio, table. As for the experimental part: as §1
For the next assay, the system named is class I HDACs. The experiment in a line: HDAC enzyme inhibitory assay, class I HDACs overall. The conditions noted are these: class I HDACs tested (HDAC1, 2, 3, 8). The procedure: as §1, with “Reactions were further incubated for 15 min at room temperature prior to fluorescence measurement (ex 360 nm/em 460 nm).” left out
Setting [1] is: read-out: IC50 HDAC8, 'No Inhibition up to 1 μM', no inhibition up to highest concentration 1 μM.
Where [2] appears, read: no inhibition up to highest concentration 1 μM.

Chain of HDAC1 (Q13547 whole entry, species assumed): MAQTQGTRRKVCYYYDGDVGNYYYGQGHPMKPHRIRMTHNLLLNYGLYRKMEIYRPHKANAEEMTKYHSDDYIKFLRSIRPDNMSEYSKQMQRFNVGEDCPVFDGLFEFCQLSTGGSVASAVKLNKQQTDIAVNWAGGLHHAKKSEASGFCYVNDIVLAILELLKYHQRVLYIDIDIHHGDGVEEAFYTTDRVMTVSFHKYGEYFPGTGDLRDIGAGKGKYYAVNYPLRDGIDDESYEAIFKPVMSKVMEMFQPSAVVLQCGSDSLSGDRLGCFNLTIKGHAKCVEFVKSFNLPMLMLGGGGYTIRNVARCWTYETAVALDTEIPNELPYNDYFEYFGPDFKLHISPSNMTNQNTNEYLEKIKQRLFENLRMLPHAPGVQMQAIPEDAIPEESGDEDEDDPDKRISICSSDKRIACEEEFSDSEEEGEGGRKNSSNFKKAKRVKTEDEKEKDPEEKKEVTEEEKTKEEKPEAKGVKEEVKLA
Chain of HDAC3 (O15379 whole entry, species assumed): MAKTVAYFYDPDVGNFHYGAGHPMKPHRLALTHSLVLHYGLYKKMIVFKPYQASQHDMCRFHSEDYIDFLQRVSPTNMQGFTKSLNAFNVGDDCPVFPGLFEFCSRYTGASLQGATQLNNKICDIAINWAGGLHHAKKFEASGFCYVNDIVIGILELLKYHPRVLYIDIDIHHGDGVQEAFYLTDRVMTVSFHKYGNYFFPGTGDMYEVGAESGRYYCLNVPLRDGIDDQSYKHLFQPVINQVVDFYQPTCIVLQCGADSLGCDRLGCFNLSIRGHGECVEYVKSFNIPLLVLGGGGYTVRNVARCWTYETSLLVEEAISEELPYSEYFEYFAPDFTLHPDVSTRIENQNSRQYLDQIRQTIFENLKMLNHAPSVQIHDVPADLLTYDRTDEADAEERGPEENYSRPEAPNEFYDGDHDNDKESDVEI
Chain of HDAC3 (Q9Y618 395-489 partner limits assumed, species assumed): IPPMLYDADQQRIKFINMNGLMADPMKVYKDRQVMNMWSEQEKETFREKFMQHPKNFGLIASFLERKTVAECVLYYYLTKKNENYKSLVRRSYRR
Chain of HDAC2 (Q92769 whole entry, species assumed): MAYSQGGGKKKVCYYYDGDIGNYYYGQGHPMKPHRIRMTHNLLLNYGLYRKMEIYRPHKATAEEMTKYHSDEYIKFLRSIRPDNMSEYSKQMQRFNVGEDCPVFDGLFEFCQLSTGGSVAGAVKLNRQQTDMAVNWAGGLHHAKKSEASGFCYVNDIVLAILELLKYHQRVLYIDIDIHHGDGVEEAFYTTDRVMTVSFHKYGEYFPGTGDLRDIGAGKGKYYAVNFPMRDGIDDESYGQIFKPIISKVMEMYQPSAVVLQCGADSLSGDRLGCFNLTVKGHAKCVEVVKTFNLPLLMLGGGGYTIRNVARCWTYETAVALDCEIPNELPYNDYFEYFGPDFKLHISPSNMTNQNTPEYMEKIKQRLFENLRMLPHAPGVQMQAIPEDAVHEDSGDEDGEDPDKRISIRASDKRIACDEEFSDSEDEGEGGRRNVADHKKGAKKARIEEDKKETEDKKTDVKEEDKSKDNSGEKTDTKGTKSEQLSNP

As usually defined, the IC50 is the concentration that inhibits the measured activity by half. Take `CC12CSC(=N1)c1csc(n1)CNC(=O)CC(C=CCCS)OC(=O)C(Cc1ccccc1)NC2=O` (centres unmarked) [Compound 3]: the 50% inhibitory concentration (IC50) is 0.29 nM on HDAC1 and > 1000 nM on HDAC8 (setting [1]).

At HDAC1, `CC12CSC(=N1)c1csc(n1)CNC(=O)CC(C=CCCS)OC(=O)C(Cc1c[nH]cn1)NC2=O` (centres unmarked) [Compound 5] registered an IC50 of 0.2 nM. Also, on HDAC3, the IC50 stood at 1.1 nM, the “selectivity towards HDAC1 over HDAC3” value is 5.5 fold and the “IC50 (HDAC3)/IC50 (HDAC1)” value worked out at 5.5. Also, at HDAC2, half-maximal inhibition (IC50) was put at 1.4 nM, the “selectivity towards HDAC1 over HDAC2” value is listed as 7 fold and the “IC50 (HDAC2)/IC50 (HDAC1)” value was 7.0. Moreover, the half-maximal inhibitory concentration (IC50) at HDAC8 (setting [1]) was > 1000 nM.

Consider `C[C@@]12CSC(=N1)c1csc(n1)CNC(=O)C[C@@H](/C=C/CCS)OC(=O)[C@H](CCCN)NC2=O` [Compound 8], for which the IC50 at HDAC8 (setting [2]) was > 1000 nM.

Consider `C[C@@]12CSC(=N1)c1csc(n1)CNC(=O)C[C@@H](/C=C/CCS)OC(=O)[C@H](Cc1ccc(O)cc1)NC2=O` [Compound 4], for which the concentration for half-maximal inhibition (IC50) on HDAC8 (setting [2]) was > 1000 nM.

As for `CC(C)(C)OC(=O)NCCCC1NC(=O)C2(C)CSC(=N2)c2csc(n2)CNC(=O)CC(C=CCCS)OC1=O` (centres unmarked) [Compound 10], the IC50 against HDAC1 is 0.96 nM; on HDAC3, 1.8 nM; at HDAC2, 1.4 nM; on HDAC8 (read-out: IC50 (nM) HDAC8) it was 790 nM. Moreover, the “IC50 (HDAC3)/IC50 (HDAC1)” value on HDAC3 is given as 1.9. In addition, at HDAC2, the “IC50 (HDAC2)/IC50 (HDAC1)” value is on record as 1.5. Also, the “HDAC inhibition, potency in words” value with class I HDACs is “more potent than 9”.

As to `CC(C)(C)OC(=O)NCCC1NC(=O)C2(C)CSC(=N2)c2csc(n2)CNC(=O)CC(C=CCCS)OC1=O` (centres unmarked) [Compound 9], the IC50 is 2.3 nM against HDAC1, 4.2 nM on HDAC3, 3.1 nM at HDAC2 and > 1000 nM at HDAC8 (setting [1]). Further, the “IC50 (HDAC3)/IC50 (HDAC1)” value at HDAC3 came to 1.8. Moreover, on HDAC2, the “IC50 (HDAC2)/IC50 (HDAC1)” value is 1.4.

Take `CC12CSC(=N1)c1csc(n1)CNC(=O)CC(C=CCCS)OC(=O)C(CC(=O)O)NC2=O` (centres unmarked) [Compound 6]: the IC50 against HDAC1 is 39 nM; at HDAC8 (setting [1]) it was > 1000 nM. For the same compound, in the assay on class I HDACs, the “HDAC inhibition, potency in words” value is “significant reduction in activity”.

Regarding `C[C@@]12CSC(=N1)c1csc(n1)CNC(=O)C[C@@H](/C=C/CCS)OC(=O)[C@H](CCN)NC2=O` [Compound 7], on HDAC8 (setting [2]), the half-maximal inhibitory concentration (IC50) is > 1000 nM.
